Reference: patent US20260021119A1, “TETRACYCLINE DERIVATIVES” (ICM (INSTITUT DU CERVEAU ET DE LA MOELLE ÉPINIÈRE), priority 2022, published 2026)
Values after ≈ are worked out from the molar mass of the structure shown.

Experiments:
4 test bacterial strains = assay: Antimicrobial effects, summary over the 4 test bacterial strains (Example 9); type: cell-based
Text: (§1) Bacterial strains used in this study were: S. aureus (ATCC25923), E. coli (ATCC28922), E. faecalis (ATCC29212) and P. aeruginosa (PA01). The minimum inhibitory concentrations (MICs) were estimated using standardized protocols (Mawabo et al, J. Infect. Public Health 2015).

dopamine neurons = assay: Neuroprotection in midbrain mouse cultures, survival of TH+ dopamine neurons; type: cell-based; details: div14
Method: (§2) Midbrain mouse cultures were subjected to a maturation step until day in vitro (div) 7, and then gradually exposed to phenol red formulated DMEM/Nutrient mixture F12 Ham supplemented with 20 μg/mL of insulin and 2 μM of the NMDA receptor blocker MK-801. Under these conditions, which favor low-level, sustained oxidative insults, and lead ultimately to dopamine cell death, treatments with the compound of formula (Ib) according to the invention (at a concentration ranging from 0.1 to 5 μM) were performed or not, as well as treatments with the reference tetracycline antibiotic doxycycline (DOX; 10 μM) and the glycoprotein apotransferrin (APO; 100 μg/mL), the latter being used as reference neuroprotectant. At div14, cultures were fixed, and then processed for tyrosine hydroxylase (TH) immunocytochemistry to estimate the survival of dopamine neurons.
as §2, with “(Ic)” for “(Ib)”, “with” for “with the reference tetracycline antibiotic doxycycline (DOX; 10 μM) and”

[1] = system: primary mouse microglial cells (TNF-a release, LPS 10 ng/ml); assay: Anti-inflammatory effect in LPS-activated primary mouse microglial cells, TNF-a ELISA; type: cell-based; details: between 5 μM to 50 μM; LPS 10 ng/ml, 24 hours
Method: Primary mouse microglial cells cultivated in Dulbecco's Modified Eagle Medium (DMEM) with no serum and 15 mM Hepes were challenged with lipopolysaccharide (LPS, 10 ng/ml) for 24 hours in the presence or not of the compound of formula (Ib) according to the present invention at concentrations of 1 μM, 5 μM, 25 μM and 50 μM. After that, the release of the proinflammatory cytokine TNF-a was estimated with an ELISA kit (ThermoFisher Scientific).

S. aureus ATCC 25923 [2] = assay: MIC, standardized protocols (Example 9); type: cell-based; details: Staphylococcus aureus, ATCC25923
Text: as §1

E. faecalis ATCC 29212 [3] = assay: MIC, standardized protocols (Example 9); type: cell-based; details: Enterococcus faecalis, ATCC29212
Text: as §1

E. coli ATCC 28922 = assay: MIC, standardized protocols (Example 9); type: cell-based; details: Escherichia coli, ATCC28922
Text: as §1

P. aeruginosa PA01 [4] = assay: MIC, standardized protocols (Example 9); type: cell-based; details: Pseudomonas aeruginosa
Text: as §1

[5] = system: p-tau (phosphorylated tau protein at Ser202, Thr205 residues); assay: p-tau (AT8) expression in cultured cortical neurons under oxidative stress; type: cell-based, mouse; set-up: key to Reduction of the % of p-tau+ somas: a favorable response, synonymous with a decrease in the number of p-tau+ cell bodies; ++: a favorable response, synonymous with a decrease in the number of p-tau+ cell bodies; +++=reference level; an unfavorable response is represented by a sign “−”, synonymous with an elevation of the number of p-tau+ cell bodies; overexpression of p-tau in cortical cell bodies: dose or concentration left out as unconfirmed
Method: A culture model of cortical neurons from mouse embryonic brain was used, in which neuronal cells were subjected to a maturation step until day in vitro (div) 7, before being gradually exposed to phenol red formulated DMEM/Nutrient mixture F12 Ham supplemented with 20 μg/mL of insulin, and 2 μM of the NMDA receptor blocker MK-801 (DF12i).
Precisely, after 4 days of exposure to DF12i, between 10-15% of surviving neurons show a very strong AT8 immunosignal in their somas while only 1 to 1.5% of neuronal cell bodies are found immunopositive under conditions where oxidative stress is repressed by treatment with bovine apotransferrin (APO; 100 µg/mL, Sigma Aldrich), a glycoprotein with iron chelating properties. Likewise, overexpression of p-tau in cortical cell bodies is reduced by the two non-antibiotic tetracyclines compound of formula (C) ([…]) and compound of formula (Ib) ([…]): see the following Table: […]

[6] = Brain penetration after single subcutaneous injection; type: in vivo; details: mouse, brain and serum, sc; 40 mg/kg single subcutaneous injection, Swiss mice, 30 min to 24 h, n=3; read-out: brain-to-plasma ratio calculated from the area under the concentration time curves
Method: Adult Swiss mice received a single subcutaneous injection of 40 mg/kg of the compound of formula (Ia) according to the present invention, the compound of formula (C), or doxycycline diluted in saline with 5% DMSO and 5% Tween 80 (doxycycline was used as a reference tetracycline). The mice were sacrificed 30 min, 1 h, 8 h, and 24 h after treatment. After sacrifice, brain and serum samples were collected and processed at each time point for tetracycline dosage, using an UHPLC system coupled with a triple quadrupole mass spectrometer LCMS-8030 (Shimadzu Corporation, Kyoto, Japan).

E. coli ATCC 25922 = assay: MIC, broth dilution (Example 3); type: cell-based; details: Escherichia coli, ATCC25922; 18 h at 37° C., MH broth
Method: (§3) Bacterial strains used in this study were: S. aureus (ATCC25923), E. coli (ATCC25922), E. faecalis (ATCC29212) and P. aeruginosa (PA01). Strains were maintained at −80° C. in 15% (v/v) glycerol for cryoprotection. Bacteria were routinely grown in Mueller-Hinton (MH) broth at 37° C.
(§4) The susceptibility of bacterial strains to antibiotics and compounds was determined in microplates using the standard broth dilution method in accordance with the recommendations of the Comité de 1′Antibiogramme de la Société Française de Microbiologie (CA-SFM). (Members of the SFM Antibiogram Committee, R. Int. J. Antimicrob. Agents 2003, 21, 364). Briefly, the Minimal Inhibitory Concentrations (MICs) were determined with an inoculum of 10^5 CFU in 200 μL of MH broth containing two-fold serial dilutions of each drug. […] To determine all MICs, the measurements were independently repeated in triplicate.
(§5) The compound of formula (Ia) according to the invention was tested against clinical isolates Gram-bacteria (P. aeruginosa, E. coli) and Gram+ bacteria (S. aureus, E. faecalis). Minimum inhibitory concentrations (MIC) were tentatively determined and compared to known antibiotic tetracyclines (doxycycline, demeclocycline, chlortetracycline) and to the compound of formula (B) disclosed in Example 1 of the present application. The test was reproduced twice and the average MIC were calculated.

S. aureus ATCC 25923 [7] = assay: MIC, broth dilution (Example 3); type: cell-based; details: Staphylococcus aureus, ATCC25923; 18 h at 37° C., MH broth
Method: as §3, §4, §5

E. faecalis ATCC 29212 [8] = assay: MIC, broth dilution (Example 3); type: cell-based; details: Enterococcus faecalis, ATCC29212; 18 h at 37° C., MH broth
Method: as §3, §4, §5

P. aeruginosa PA01 [9] = assay: MIC, broth dilution (Example 3); type: cell-based; details: Pseudomonas aeruginosa, 18 h at 37° C., MH broth
Method: as §3, §4, §5

[10] = system: Gram+ and Gram- bacteria (S. aureus, E. coli, E. faecalis, P. aeruginosa); assay: Antibiotic activity, summary over the bacterial strains (Examples 3 and 7); type: cell-based; set-up: key to Antibiotic activity: low: Weak antibiotic activity on only 1 of the 3 bacterial strains (i.e. S aureus); high: Strong antibiotic activity on all 3 bacterial strains; Significant antibiotic activity on two bacterial strains; details: summary over bacterial strains
Method: as §3, §4, §5
(§6) The properties of tetracycline derivatives, including the compound of formula (Ia) according to the present invention, were compared regarding the neuroprotection, anti-inflammatory effects, anti-aggregant activity, and antibiotic activity. The properties were evaluated as described herein above.
(§7) EC50s, IC50s determined graphically, *Rescue of dopamine neurons from spontaneous oxidative stress; ** TNF α release inhibition under LPS exposure, ^#Weak antibiotic activity on only 1 of the 3 bacterial strains (i.e. S aureus). ##Strong antibiotic activity on all 3 bacterial strains. ^###Significant antibiotic activity on two bacterial strains.

[11] = system: dopaminergic neurons (TH+ neurons); assay: Neuroprotection: rescue of dopamine neurons from spontaneous oxidative stress in primary cultures; type: cell-based
Method: In primary cultures of dopaminergic neurons, TH+ neurons suffer from oxidative stress, leading to the death of the neurons after a few days. When cultured in the presence of a positive reference (apotransferrin), the dopaminergic neurons survive. The neuroprotective effects of 10 μM of doxycycline (DOX) and of 3 μM or 5 μM of the compound of formula (Ia) according to the present invention were evaluated, compared to the effect of 100 μg/mL of apotransferrin (APO).
as §6, §7

[12] = system: microglia cells (TNF α release under LPS); assay: Anti-inflammatory effect in microglia, TNF α release inhibition under LPS exposure; type: cell-based; details: Microglia; TNF α release inhibition under LPS exposure; determined graphically; read-out: Anti inflammatory effects (IC 50 in μM)
Method: Microglia is in charge of the protection of the neurons. However, under stress conditions, microglia cells are responsible of inflammatory phenomena, leading eventually to the death of the neurons. The anti-inflammatory effects of 5 μM and 20 μM of compound of formula (B) presented in Example 1, of 5 μM and 20 μM of compound of formula (Ia) according to the present invention and of 50 μM of doxycycline (DOX) were evaluated, compared to the effect of 2.5 μM of dexamethasone (DEX). Microglia is in charge of the protection of the neurons. However, under stress conditions, microglia cells are responsible of inflammatory phenomena, leading eventually to the death of the neurons. The anti-inflammatory effects of 10 μM and 20 μM of compound of formula (C) (“10 μM (C)” and “20 μM (C)”) and of 10 μM and 20 μM of compound of formula (Ia) according to the present invention (“10 μM (Ia)” and “20 μM (Ia)”) were evaluated, compared to the effect of 2.5 μM of dexamethasone (“DEX”). The properties of tetracycline derivatives, including the compound of formula (Ia) according to the present invention, were compared regarding the neuroprotection, anti-inflammatory effects, anti-aggregant activity, and antibiotic activity. The properties were evaluated as described herein above. EC50s, IC50s determined graphically, *Rescue of dopamine neurons from spontaneous oxidative stress; ** TNF α release inhibition under LPS exposure, ^#Weak antibiotic activity on only 1 of the 3 bacterial strains (i.e. S aureus). ##Strong antibiotic activity on all 3 bacterial strains. ^###Significant antibiotic activity on two bacterial strains.

alpha-synuclein = alpha-synuclein (Homo sapiens, UniProt P37840); assay: alpha-synuclein aggregation, thioflavin T (ThT) fluorescence; type: biochemical; details: 20 μM
Method: The antiaggregant effect of the compound of formula (Ia) according to the present invention on alpha-synuclein (αS) was evaluated in vitro by measuring the fluorescence intensity of the probe thioflavin T (ThT), a molecule that specifically binds to cross-β structures characteristic of amyloid-like aggregation. The compound of formula (Ia) was dissolved in dimethylsulfoxide to reach a concentration of […]. In this assay, 70 μM of alpha-synuclein was incubated with and without 10 μM, 20 μM and 50 μM of the compound of formula (Ia), under orbital agitation (600 rpm), at 37° C., for 5 days. After the incubation time, Tht was added to each sample and changes in the emission fluorescence spectra (λex=450 and λem=[…]) was monitored using a Horiba Fluoromax CP4 spectrofluorometer.

SMILES	antimicrobial effects against the 4 test bacterial strains (4 test bacterial strains)	neuroprotective effect (survival of dopamine neurons) (dopamine neurons; 0.5 μM, 1 μM and 5 μM)	reduction of proinflammatory effects of LPS (TNF-a release) [1]	MIC (S. aureus ATCC 25923 [2]) [µM]	MIC (E. faecalis ATCC 29212 [3]) [µM]	MIC (E. coli ATCC 28922) [µM]	MIC (P. aeruginosa PA01 [4]) [µM]	overexpression of p-tau in cortical cell bodies [5]	Reduction of the % of p-tau+ somas ([5]; compounds 3 μM, APO 100 μg/mL, mouse cortical cultures exposed div 7-11 to DF12i)	Kp [6]	MIC (E. coli ATCC 25922) [µM]	MIC (S. aureus ATCC 25923 [7]) [µM]	MIC (E. faecalis ATCC 29212 [8]) [µM]	MIC (P. aeruginosa PA01 [9]) [µM]	neuroprotective effect (survival of dopamine neurons) (dopamine neurons; 10 μM)	Antibiotic activity [10]	neuroprotective effect ([11]; 10 μM, compared to apotransferrin 100 μg/mL)	EC50 ([11]; Neuron, rescue of dopamine neurons from spontaneous oxidative stress, determined graphically, read-out: Neuroprotection (EC 50 μM)) [µM]	IC50 [12] [µM]	Anti aggregant activity at 20 μM (alpha-synuclein)
C[C@@]1(O)c2cccc(O)c2C(=O)C2=C(O)C3C(=O)C(C(N)=O)=C(O)C[C@@H]3[C@@H](O)[C@@H]21 (stereo partly drawn) [Compound of formula (Ib), (4aS,5R,5aR,6S)-3,5,6,10,12-pentahydroxy-6-methyl-1,11-dioxo-1,4,4a,5,5a,6,11,12a-octahydrotetracene-2-carboxamide]	effective against none of them	highly protective	reduces significantly	100	100	> 200	> 200	reduced	+++											
C[C@H]1c2cccc(O)c2C(=O)C2=C(O)[C@]3(O)C(=O)C(C(N)=O)=C(O)[C@@H](N(C)C)[C@@H]3[C@@H](O)[C@@H]21 [Doxycycline]										0.11 ± 0.03	3.12 (≈ 1.39 µg/mL)	0.4 (≈ 0.178 µg/mL)	0.4 (≈ 0.178 µg/mL)	64 (≈ 28.4 µg/mL)	shows a neuroprotective effect	high	shows a neuroprotective effect	5.2	45	yes
CN(C)[C@@H]1C(O)=C(C(N)=O)C(=O)[C@@]2(O)C(O)=C3C(=O)c4c(O)cccc4[C@@](C)(O)[C@H]3[C@H](O)[C@@H]12 [Oxytetracycline]	exerts antimicrobial effects against 3 of the 4 test bacterial strains			3.12 (≈ 1.44 µg/mL)	3.12 (≈ 1.44 µg/mL)	3.12 (≈ 1.44 µg/mL)	50 (≈ 23 µg/mL)													
